This note sets out measurements from patent US20230285372A1, “Pharmaceutical use of (E)-3-arylheterocyclylprop-2-enoic acid derivatives” (MEDCURIUS INC., priority 2020, published 2023).

One test deals with α-synuclein protein. Nature of the test: α-synuclein protein level in midbrain, Western blot, MPTP mouse. Particulars: high dosage treatment group of I-5; vs model group, p<0.05. Type of test: in vivo. An excerpt:
The core pathological change of Parkinson's disease is the loss of dopaminergic neurons. Tyrosine hydroxylase (TH), the rate-limiting enzyme in dopamine synthesis, is the landmark protein of the dopaminergic neurons. Therefore, the decrease in its level indicates the loss of the dopaminergic neurons. A key protein for the occurrence and development of Parkinson's disease is α-synuclein protein, and the abnormal modification (hyperphosphorylation) of this protein can inhibit microtubule polymerization, enhance oxidative stress, and thus accelerate the death of the dopaminergic neurons.
Male C57 mouse were screened for their motor function by a mouse rod-rotating test, and unqualified ones were excluded from the test. […] MPTP was injected subcutaneously every 4 days in the model group and the drug administration group with a dosage of 25 mg/kg for 40 consecutive days. Each group of I-5 was administered once a day at 8:00 am and 8:00 pm (by intragastric administration), twice in total. […]
Tissues from all the animals were collected on the second day after the end of the behavioral experiment. […] The level of tyrosine hydroxylase (TH), a marker protein of dopaminergic neurons, was detected by immumohistochemistry, and α-synuclein protein level and phosphorylation level of the protein were detected by Western blot.
A general note: A western blot detects proteins with antibodies after separation by electrophoresis.

The next test has as its system Nrf2. Nature of the test: Nrf2 protein level in the nucleus of HT-22 cells, Western Blot. Type of test: cell-based, mouse. Particulars: 1.25 μM and 0.625 μM, 24 hours, vs control group. An excerpt:
(§1) As a transcription factor, Nrf2 needs to enter the nucleus and combine with ARE sequence to play a role in transcriptional activation. Therefore, Nrf2 protein level in the nucleus is an important prerequisite for the activation of Nrf2 signaling pathway. NQO-1 and HO-1 are target genes regulated by Nrf2, and the increase of their protein levels is an important sign of activation of the Nrf2 signaling pathway.
(§2) HT-22 cells in logarithmic growth phase were selected, the culture medium was discarded, the cells were digested with 0.25% Trypsin containing EDTA, and cell suspension was made. Cell density was adjusted to 50000/ml with DMEM/F12 medium (containing 10% FBS and 1% double antibody) and it was inoculated to 6-well plate, with 2000 μL/well, the number of cells per well was 100, 000, and the cells were cultured in a cell incubator at 37° C. in an atmosphere containing 5% CO2 for 24 hours. Then, the medium of each well was replaced with new 1980 μL DMEM/F12 medium. […] After 24 hours, the cells were collected, nuclear protein and cytoplasmic protein were extracted, and the level of Nrf2 in the nucleus and the expression of NQO-1 and HO-1 in cytoplasm were detected by Western Blot.

A further test deals with NQO-1. Nature of the test: NQO-1 expression in HT-22 cytoplasm, Western Blot. Type of test: cell-based, mouse. Particulars: HT-22 cells, 1.25 μM, 24 hours, vs control group.
Source text: as §1, §2

The test system of test [1] is MPTP-induced Parkinson's disease mouse. Nature of the test: Rotarod test, MPTP-induced Parkinson's disease mouse. The format is in vivo. Particulars: vs model group. Here is the method:
Male C57 mouse were screened for their motor function by a mouse rod-rotating test, and unqualified ones were excluded from the test. […] MPTP was injected subcutaneously every 4 days in the model group and the drug administration group with a dosage of 25 mg/kg for 40 consecutive days. Each group of I-5 was administered once a day at 8:00 am and 8:00 pm (by intragastric administration), twice in total. […] The intragastric volume was 0.1 ml/10 g body weight, and the behavior test was started 40 days later. […] The storage time of the prepared liquid medicine was not more than 24 hours.
On the first day, the mouse acclimated to a rotating speed of 5 rpm for two times, each time for 5 minutes. On the second day, the rotarod turned at a speed of 10 rpm, the mouse acclimated to the speed for two times, each time for 5 minutes. On the third day, the rotarod turned at a speed of 15 rpm, the mouse acclimated to the speed for two times, each time for 3 minutes. On the fourth day, a behavioral test was started. The rotarod turned at a speed of 15 rpm for a period of 3 minutes. The time mouse spent on the rotarod (fall latency) was taken as an index for evaluation of their motor coordination. The test was repeated three times for each animal, with an interval of 30 minutes to eliminate the interference of exercise fatigue on the motion ability of animals.
(Falling from the rotarod earlier than controls is read as motor impairment.)

As for `N#C/C=C/c1ccccn1` [Compound I-5], in the test on α-synuclein protein, the “α-synuclein protein level in the midbrain” value is reported as “significantly higher than that of the model group”. Besides, the “protein level of Nrf2 in the nucleus” value in the test with Nrf2 is “significantly higher than that of the control group”. Moreover, the “protein level of NQO-1” value with NQO-1 was “increased significantly”. The “fall latency in the Rotarod test” value in test [1] (5 mg/kg bid intragastric, p>0.05) is on record as “no significant difference”; in test [1] (medium and high dosage groups (10 and 20 mg/kg bid), p<0.0001), “significantly prolonged”.
